Data from PMC7918497, “Proposed Mechanism for the Antitrypanosomal Activity of Quercetin and Myricetin Isolated from Hypericum afrum Lam.: Phytochemistry, In Vitro Testing and Modeling Studies” (Molecules, 2021).
Read-outs that look alike come from different tables or passages of the source.

Legend:
[1] = General cytotoxicity against THP1 cells; format: cell-based, human; details: human, THP1 cells
[2] = tested on: L. donovani axenic amastigotes; test: In vitro antileishmanial assay, L. donovani axenic amastigotes (Alamar Blue); format: cell-based, Leishmania donovani
Description: (§1) IC50 and IC90 values were computed from the dose–response curves using XLfit software. DFMO (difluoromethylornithine) was used as the positive control. The antiprotozoal activities of the H. afrum fractions and isolated compounds were evaluated in vitro against L. donovani promastigotes, axenic amastigotes and intracellular amastigotes in THP1 cells. The fractions and some isolated compounds were also evaluated against T. brucei trypomastigote forms.

[3] = tested on: L. donovani intracellular amastigotes in THP1 cells; test: In vitro antileishmanial assay, intracellular amastigotes in THP1 cells (parasite rescue and transformation assay); format: cell-based, Leishmania donovani
Description: as §1

[4] = tested on: L. donovani promastigotes; test: In vitro antileishmanial assay, L. donovani promastigotes (Alamar Blue); format: cell-based, Leishmania donovani; details: for IC50: read-out: L. Donovani Promastigote IC50; for IC90: read-out: L. Donovani Promastigote IC90
Description: as §1

[5] = tested on: Trypanosoma brucei trypomastigotes; test: In vitro antitrypanosomal assay, T. brucei trypomastigotes (Alamar Blue); format: cell-based
Description: as §1

[6] = tested on: TbHK1; parameters: method as in PMID 20971104; details: read-out: TbHK1 inhibition IC50; cited from earlier work
[7] = tested on: THP1 cells; test: General cytotoxicity against THP1 cells; format: cell-based, human; details: Table 1
[8] = Leishmania donovani, Table 2, read-out: L. Donovani Amastigote IC50
[9] = Leishmania donovani, Table 2, read-out: L. Donovani Amastigote IC90
[10] = Leishmania donovani, THP-1, Table 2, read-out: L. Donovani Amastigote/THP IC50
[11] = Leishmania donovani, THP-1, Table 2, read-out: L. Donovani Amastigote/THP IC90
[12] = Leishmania donovani, fractions, Table 2
[13] = Trypanosoma brucei, isolated compounds
[14] = Leishmania donovani, Table 1, read-out: L. Donovani Amastigote IC50
[15] = Leishmania donovani, Table 1, read-out: L. Donovani Amastigote IC90
[16] = Leishmania donovani, THP-1, Table 1, read-out: L. Donovani Amastigote/THP1 IC50
[17] = Leishmania donovani, THP-1, Table 1, read-out: L. Donovani Amastigote/THP1 IC90
[18] = Leishmania donovani, isolated compounds, Table 1, tested range 0.4–10 ug/mL
[19] = isolated compounds, Table 1, tested range 0.4–10 ug/mL

IC50 [5, 13] [µM]	IC90 [5, 13] [µM]	IC90 [2, 15] [µM]	IC50 [3, 16] [µM]	IC90 [3, 17] [µM]	Molecule	IC50 ([1]; Table 1) [µM]	IC90 ([1]; Table 1) [µM]	IC50 [2, 14] [µM]	IC50 [4, 18] [µM]	IC90 [4, 18] [µM]	also measured
> 10	> 10	> 10	> 10	> 10	O=c1c(-c2c(O)cc(O)c3c(=O)cc(-c4ccc(O)cc4)oc23)c(-c2ccc(O)cc2)oc2cc(O)cc(O)c12 [Compound 3, biapigenin]	> 10	> 10	> 10	> 10	> 10	
> 10	> 10	> 10	> 10	> 10	O=c1c(OC2OC(CO)C(O)C(O)C2O)c(-c2cc(O)c(O)c(O)c2)oc2cc(O)cc(O)c12 [Compound 6, myricetin-3-O-β-D-galactopyranoside]	> 10	> 10	> 10	> 10	> 10	
> 10	> 10	> 10	> 10	> 10	O=c1c(O)c(-c2cc(O)c(O)c(OC3OC(CO)C(O)C(O)C3O)c2)oc2cc(O)cc(O)c12 [Compound 7, myricetin-3’-O-β-D-glucopyranoside]	> 10	> 10	> 10	> 10	> 10	
0.001	0.002	> 10			N=C(N)c1ccc(OCCCCCOc2ccc(C(=N)N)cc2)cc1 [PENT, Pentamidine, reference compound]	> 10	> 10				IC50 ([5]; Trypanosoma brucei, fractions): 1 ng/mL; IC90 ([5]; Trypanosoma brucei, fractions): 2 ng/mL; IC50 ([1]; Table 2): > 10 µg/mL; IC90 ([1]; Table 2): > 10 µg/mL; IC50 [2, 8]: 9.58 µg/mL; IC90 [2, 9]: > 10 µg/mL; IC50 [3, 10]: 1.16 µg/mL; IC90 [3, 11]: 5.59 µg/mL; IC50 [4, 12]: 1.48 µg/mL; IC90 [4, 12]: 2.38 µg/mL

More lines, now with the values behind:

Molecule	IC50 [5, 13] [µM]	IC90 [5, 13] [µM]	IC90 [2, 15] [µM]	IC50 [3, 16] [µM]	IC90 [3, 17] [µM]	IC50 ([1]; Table 1) [µM]	IC90 ([1]; Table 1) [µM]	IC50 [2, 14] [µM]	IC50 [4, 18] [µM]	IC90 [4, 18] [µM]	also measured
C[C@@H]1[C@H](O)[C@@H](C)/C=C/C=C/C=C/C=C/C=C/C=C/C=C/[C@H](O[C@@H]2O[C@H](C)[C@@H](O)[C@H](N)[C@@H]2O)C[C@@H]2O[C@](O)(C[C@@H](O)C[C@@H](O)[C@H](O)CC[C@@H](O)C[C@@H](O)CC(=O)O[C@H]1C)C[C@H](O)[C@H]2C(=O)O [AMB, Amphotericin, reference compound]						> 2	> 2				IC50 ([1]; Table 2): > 2 µg/mL; IC90 ([1]; Table 2): > 2 µg/mL; IC50 [2, 8]: 0.304 µg/mL; IC90 [2, 9]: 0.362 µg/mL; IC50 [3, 10]: 0.187 µg/mL; IC90 [3, 11]: 0.264 µg/mL; IC50 [4, 12]: 0.138 µg/mL; IC90 [4, 12]: 0.188 µg/mL
O=c1c(O)c(-c2ccc(O)c(O)c2)oc2cc(O)cc(O)c12 [Compound 1, quercetin]	7.52	9.76	> 10	> 10	> 10	> 10	> 10	> 10	> 10	> 10	IC50 [6]: 4.1 µM
O=c1c(O)c(-c2cc(O)c(O)c(O)c2)oc2cc(O)cc(O)c12 [Compound 4, myricetin]	5.71	7.97	> 10	> 10	> 10	> 10	> 10	> 10	> 10	> 10	IC50 [6]: 48.9 µM
O=c1c(O[C@@H]2O[C@H](CO)[C@H](O)[C@H](O)[C@H]2O)c(-c2ccc(O)c(O)c2)oc2cc(O)cc(O)c12 [Compound 5, hyperoside]	> 10	> 10	> 10	> 10	> 10	> 10	> 10	> 10	> 10	> 10	
NCCC[C@](N)(C(=O)O)C(F)F [DFMO, α-difluoromethylornithine, reference compound]											T. Brucei IC50 ([5]; fractions): 3.634 µg/mL; T. Brucei IC90 ([5]; fractions): 8.804 µg/mL; IC50 ([5]; isolated compounds): 3.63 µM; IC90 ([5]; isolated compounds): 8.8 µM
myricitrin [Compound 2]											IC50 ([5]; isolated compounds): > 10 µM; IC90 ([5]; isolated compounds): > 10 µM; IC50 [7]: > 10 µM; IC90 [7]: > 10 µM; IC50 ([2]; Table 1, read-out: L. Donovani Amastigote IC50): > 10 µM; IC90 ([2]; Table 1, read-out: L. Donovani Amastigote IC90): > 10 µM; IC50 ([3]; Table 1, read-out: L. Donovani Amastigote/THP1 IC50): > 10 µM; IC90 ([3]; Table 1, read-out: L. Donovani Amastigote/THP1 IC90): > 10 µM; IC50 [4, 19]: > 10 µM; IC90 [4, 19]: > 10 µM
